Measured values as given in patent US4755526A, “Method of inhibiting aromatase” (Eli Lilly and Company, priority 1984, dated 1988).

Experiments:
[1] = system: DMBA-induced mammary tumors; test: DMBA-induced mammary tumor inhibition; assay type: in vivo, female Sprague-Dawley rats
Procedure: Mammary tumors were produced in female Sprague-Dawley rats which were 50-60 days old by the gavage administration of 20 mg of 7,12-dimethylbenz[a]anthracene (DMBA). About six weeks after DMBA administration, the mammary glands were palpated at weekly intervals for the appearance of tumors. Whenever one or more tumors appeared and were measurable in an animal, that animal was selected for experimentation. […] Each control and test group contained 8 animals. The test compound was administered either mixed into the food at a concentration of 300 ppm (corresponding to an appropriate daily dose of 30 mg/kg) or the compounds were dissolved or suspended in corn oil and administered once daily by gavage. Every experiment included a group of control rats having tumors and were either given food without the compound admixed or corn oil vehicle by gavage, depending on how the test compound was administered. […] The area of each tumor was calculated by multiplying the shortest and longest diameters of the tumor. The treatment and measurement of animals continued for 4-8 weeks at which time the final areas of the tumors were determined. For each compound (and control) at each dose level, the change in the mean tumor area was determined. The mean change was analyzed for its significance using Dunnett's t-test.

[2] = system: estrogen synthesis; test: Estrogen synthesis inhibition in rats (uterine weight and ovarian steroid concentrations); assay type: in vivo, female Wistar rats; conditions: for Mean Steroid Concentration, estradiol / Mean Steroid Concentration, estriol / Mean Steroid Concentration, estrone: ovaries; for Mean Uterine Weight: testosterone propionate-treated rats
Procedure: Test compounds were administered for seven days either daily by gavage in corn oil or as a component of the diet. Control animals received either corn oil or diet without the test compound. Beginning on the fourth day of the test, all animals treated with the test compound and one half of the control animals were given a subcutaneous injection of 1.0 mg of testosterone propionate in corn oil. The remaining control animals received only an equivalent volume of corn oil.
After two hours, the animals were killed by decapitation. Uteri were isolated, trimmed of extraneous connective tissue, and weighed. […] In the control animals treated with testosterone propionate, estrogens produced by aromatization stimulated the uterus resulting in an increase in weight.
The ovarian steroids were extracted with 1.5 ml of 9:1 (v/v) toluene/ethanol to which had been added 25 to 100 mcg each of unlabelled estradiol, estriol, and estrone, and approximately 1000 dpm of [^14 C]-estradiol. The samples were vortexed, centrifuged at 500×g for 10 minutes, and the organic phase was transferred to a conical vial. Two additional extractions were performed on the residue in the same way. The pooled organic extracts were evaporated for subsequent thin-layer chromatography.
Ovarian proteins were precipitated by the addition of 5.0 ml of ethanol to the remaining aqueous phase. After an overnight incubation at 4° C., the samples were centrifuged at 1500×g for 10 minutes. The supernatant was discarded, and the pellet was dissolved in 0.3N potassium hydroxide.
The organic residue from each above extraction was redissolved in 9:1 (v/v) dichloromethane/methanol. The solution of each sample was applied to separate silica gel thin layer chromatography plates which contained a fluorescent indicator. The plates were developed in the first dimension with 160:38:1.5:0.5 (v/v/v/v) dichloromethane/ethyl acetate/methanol/acetic acid to within 3 cm of the top of the plate. After air-drying, the plate was developed in the second dimension with 180:19:1 (v/v/v) dichloromethane/methanol/ammonium hydroxide. The plate was air-dried and viewed under 254 nm UV light.
The visible spots were marked and the plates were sprayed with primulin (0.001% in 4:1 v/v acetone/water) according to the method of Wright, J. Chromatography, 59, 220 (1971) which allowed for the identification of additional steroids under 365 nm UV light. The spots were scraped from the plate using a glass wool plugged Pasteur pipet attached to a vacuum line. The steroids were eluted directly into scintillation vials by the addition of 0.2 ml of dichloromethane followed by two washes each of 2.0 ml of methanol. The organic solvent was evaporated and 10.0 ml of scintillation fluid (Beckman Ready Solv-NA) was added to the vials. Samples were analyzed by liquid scintillation spectrometry. Corrections were made based on the recoveries of the [^14 C]-steroid. Steroid concentrations are expressed as femtomoles per milligram protein.

[3] = system: breast cancer; conditions: Cancer Research, Vol. 42, Suppl. 8: 3261s (1982); cited from earlier work
[4] = molecular target: T1, aromatase (Rattus norvegicus, UniProt P22443); test: Aromatase inhibition in the rat ovarian microsome assay; assay type: biochemical; conditions: EC50: concentration required to achieve 50% inhibition of aromatase activity, substrate (androstenedione) concentration 0.1 μM
T1 construct: ovarian microsomes are obtained from rats treated with pregnant mares serum gonadotropin; from tissue; host or cells: ovarian microsomes of rats treated with pregnant mares serum gonadotropin
T1 sequence (P22443 1-508): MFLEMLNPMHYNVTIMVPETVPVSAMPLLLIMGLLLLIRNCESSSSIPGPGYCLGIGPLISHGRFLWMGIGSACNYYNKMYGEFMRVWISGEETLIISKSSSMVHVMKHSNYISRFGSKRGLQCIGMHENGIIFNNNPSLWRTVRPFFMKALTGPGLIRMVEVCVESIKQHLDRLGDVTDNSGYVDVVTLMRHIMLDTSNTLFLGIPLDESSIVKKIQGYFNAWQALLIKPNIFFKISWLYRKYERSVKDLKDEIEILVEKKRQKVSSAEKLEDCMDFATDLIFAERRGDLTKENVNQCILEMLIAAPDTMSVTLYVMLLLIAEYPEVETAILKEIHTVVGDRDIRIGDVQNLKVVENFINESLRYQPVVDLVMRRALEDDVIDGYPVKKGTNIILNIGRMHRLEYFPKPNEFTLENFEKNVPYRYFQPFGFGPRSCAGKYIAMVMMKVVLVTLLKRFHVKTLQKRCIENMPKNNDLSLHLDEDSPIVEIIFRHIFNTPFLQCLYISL
Procedure: In this test system, ovarian microsomes are obtained from rats treated with pregnant mares serum gonadotropin. Test compounds are added to reaction vials containing 0.1 μM 4-androstene-3,17-dione, 100,000 dpm 1,2[^3 H]-androstenedione, the microsomes and a NADPH generating system. The concentrations of the inhibitors tested ranged between 0.005 and 10 μM.

[5] = 300 ppm in diet, 4 weeks, control 62.8 to 1087.3 (Test II), 1087.0 (Test III)
[6] = 30 ppm in feed (approximately 3 mg/kg/day)
[7] = 300 ppm in feed (approximately 30 mg/kg/day)

SMILES | Mean Tumor Area, Start ([1]; 300 ppm in diet, 4 weeks test) | Mean Tumor Area, Finish [1, 5] | Mean Steroid Concentration, estradiol [2, 6] | Mean Steroid Concentration, estriol [2, 6] | Mean Steroid Concentration, estrone [2, 6] | Mean Uterine Weight [2, 6] | Mean Steroid Concentration, estradiol [2, 7] | Mean Steroid Concentration, estriol [2, 7] | Mean Steroid Concentration, estrone [2, 7] | Mean Uterine Weight [2, 7] | Mean Tumor Area, Start ([1]; 5 mg/kg daily by gavage, 4 weeks test) | Mean Tumor Area, Finish ([1]; 5 mg/kg daily by gavage, 4 weeks, control 54.8 to 914.0) | Mean Tumor Area, Start ([1]; 30 mg/kg daily by gavage, 4 weeks test) | Mean Tumor Area, Finish ([1]; 30 mg/kg daily by gavage, 4 weeks, control 54.8 to 914.0) | Mean Tumor Area, Start ([1]; 300 ppm in diet, 6 weeks test) | Mean Tumor Area, Finish ([1]; 300 ppm in diet, 6 weeks, control 49.6 to 752.1) | effect in treatment of breast cancer [3] | EC50 [4] | Mean Tumor Area, Start ([1]; 300 ppm in diet, 5 weeks test) | Mean Tumor Area, Finish ([1]; 300 ppm in diet, 5 weeks, control 48.4 to 818.0)
O=[N+]([O-])c1ccc(C(c2ccc([N+](=O)[O-])cc2)n2ccnc2)cc1 [1-[bis(4-nitrophenyl)methyl]imidazole] | 64.5 mm^2 | 18.9 mm^2 | 0.92 femtomoles per milligram of protein | 1.65 femtomoles per milligram of protein | 1.58 femtomoles per milligram of protein | 105.0 mg | 0.28 femtomoles per milligram of protein | 0.83 femtomoles per milligram of protein | 0.94 femtomoles per milligram of protein | 110.8 mg |  |  |  |  |  |  |  |  |  | 
Clc1ccc(C(c2ccc(Cl)cc2)n2ccnc2)cc1 [1-[bis(4-chlorophenyl)methyl]imidazole] |  |  |  |  | 0.09 femtomoles per milligram of protein | 85.3 mg |  |  |  | 66.0 mg | 44.8 mm^2 | 346.0 mm^2 | 62.4 mm^2 | 276.0 mm^2 | 57.4 mm^2 | 40.8 mm^2 |  |  |  | 
CCC1(c2ccc(N)cc2)CCC(=O)NC1=O (stereo not shown) [aminoglutethimide] |  |  |  |  |  |  |  |  |  |  |  |  |  |  |  |  | beneficial effect in treatment of breast cancer |  |  | 
C[C@]12C=CC(=O)C=C1CC[C@@H]1[C@@H]2CC[C@]2(C)OC(=O)CC[C@@H]12 [testolactone] |  |  |  |  |  |  |  |  |  |  |  |  |  |  |  |  | beneficial effect in treatment of breast cancer |  |  | 
Clc1ccc(COc2ccccc2Cn2ccnc2)c(Cl)c1 [1-[(2-[2,4-dichlorobenzyloxy]phenyl)methyl]-1H--imidazole nitrate] |  |  | 1.16 femtomoles per milligram of protein | 0.33 femtomoles per milligram of protein | 0.31 femtomoles per milligram of protein | 173.5 mg | 1.97 femtomoles per milligram of protein | 0.34 femtomoles per milligram of protein | 0.30 femtomoles per milligram of protein | 151.4 mg |  |  |  |  |  |  |  | 68 nM |  | 
Clc1ccc(C(c2ccc(Cl)cc2)(c2cccnc2)n2ccnc2)cc1 [3-[4,4'-dichloro-α-(1-imidazolyl)diphenylmethyl]pyridine] | 53.8 mm^2 | 154.0 mm^2 | 1.25 femtomoles per milligram of protein | 0.27 femtomoles per milligram of protein | 0.11 femtomoles per milligram of protein | 118.0 mg | 0.75 femtomoles per milligram of protein | 0.28 femtomoles per milligram of protein | 0.24 femtomoles per milligram of protein | 96.8 mg |  |  |  |  |  |  |  |  |  | 
Clc1ccc(C(c2ccccc2)n2ccnc2)cc1 (stereo not shown) [1-[(4-chlorophenyl)phenylmethyl]-1H--imidazole] |  |  | 0.92 femtomoles per milligram of protein | 0.75 femtomoles per milligram of protein |  | 114.8 mg | 0.00 femtomoles per milligram of protein | 0.35 femtomoles per milligram of protein | 0.11 femtomoles per milligram of protein | 68.4 mg |  |  |  |  |  |  |  |  | 49.3 mm^2 | 467.0 mm^2
c1ccc(C(c2ccccc2)(c2ccncc2)n2ccnc2)cc1 [4-(1H--imidazol-1-yl-diphenylmethyl)pyridine] |  |  | 0.78 femtomoles per milligram of protein | 0.35 femtomoles per milligram of protein | 0.25 femtomoles per milligram of protein | 156.0 mg | 0.61 femtomoles per milligram of protein | 0.29 femtomoles per milligram of protein | 0.23 femtomoles per milligram of protein | 110.8 mg |  |  |  |  |  |  |  | 12 nM |  | 
